Consider two molecules from ChEMBL document CHEMBL1201862, “PubChem BioAssay data set” (2004).

A short description of experiment [1]: viability loss in CEM21 cells – cell-based, CellTiter-Glo luminescence, cherry-picked, cytotoxicity control for viral fusion inhibitor project, dose response (AID 652042).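 Also: potency for signal decrease meaning cytotoxicity.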 It is filed as functional. (In ATP-based viability assays light output follows the ATP content of the culture.)
Experiment [2] has as its target Sphingosine 1-phosphate receptor 2 (Homo sapiens, UniProt O95136). Description: Dose Response Cell Based Assay for Antagonists of the S1P2 Receptor. [Related pubchem assays: 856, 736 ]. It is filed as functional.
A short description of experiment [3]: DRD fibroblast viability loss – cell-based, non-viral oncogenic, luminescence, dose response (AID 1934). Type of experiment: functional. As to conditions: Homo sapiens.
Experiment [4] concerns the target T1, Apoptotic protease-activating factor 1 (Homo sapiens, UniProt O14727).
T1 sequence (O14727 whole entry): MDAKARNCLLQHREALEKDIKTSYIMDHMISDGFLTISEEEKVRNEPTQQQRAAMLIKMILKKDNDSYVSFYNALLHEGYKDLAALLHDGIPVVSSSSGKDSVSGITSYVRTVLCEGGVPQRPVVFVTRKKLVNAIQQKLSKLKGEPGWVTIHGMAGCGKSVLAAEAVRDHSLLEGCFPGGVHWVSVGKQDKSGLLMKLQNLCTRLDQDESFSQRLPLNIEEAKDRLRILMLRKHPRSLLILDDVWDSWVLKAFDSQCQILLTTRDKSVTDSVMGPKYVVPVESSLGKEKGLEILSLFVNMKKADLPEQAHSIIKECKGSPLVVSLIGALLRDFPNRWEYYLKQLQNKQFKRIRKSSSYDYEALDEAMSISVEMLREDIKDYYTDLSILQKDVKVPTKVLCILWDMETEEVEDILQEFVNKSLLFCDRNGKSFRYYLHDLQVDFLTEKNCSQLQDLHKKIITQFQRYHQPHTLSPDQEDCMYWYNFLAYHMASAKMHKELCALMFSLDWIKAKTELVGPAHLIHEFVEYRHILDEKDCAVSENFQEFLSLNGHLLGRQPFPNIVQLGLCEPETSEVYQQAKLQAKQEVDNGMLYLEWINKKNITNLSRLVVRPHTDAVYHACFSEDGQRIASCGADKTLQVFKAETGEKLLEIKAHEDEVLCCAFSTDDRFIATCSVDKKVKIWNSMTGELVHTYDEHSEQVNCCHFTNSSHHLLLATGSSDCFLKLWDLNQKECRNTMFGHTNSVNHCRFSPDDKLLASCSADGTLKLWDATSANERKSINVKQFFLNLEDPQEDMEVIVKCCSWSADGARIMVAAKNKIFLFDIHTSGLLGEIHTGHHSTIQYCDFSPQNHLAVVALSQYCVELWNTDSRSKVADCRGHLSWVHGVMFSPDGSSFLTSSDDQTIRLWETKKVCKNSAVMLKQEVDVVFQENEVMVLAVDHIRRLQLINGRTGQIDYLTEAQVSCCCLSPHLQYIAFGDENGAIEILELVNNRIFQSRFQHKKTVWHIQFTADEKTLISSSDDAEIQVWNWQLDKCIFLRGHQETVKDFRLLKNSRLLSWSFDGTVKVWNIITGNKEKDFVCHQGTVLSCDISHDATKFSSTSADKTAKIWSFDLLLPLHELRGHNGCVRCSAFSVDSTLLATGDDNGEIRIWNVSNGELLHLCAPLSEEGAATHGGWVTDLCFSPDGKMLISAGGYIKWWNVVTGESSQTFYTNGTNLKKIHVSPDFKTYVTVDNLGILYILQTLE
It is filed as functional.

Experiment [5] has as its target Lysine-specific demethylase 4C (Homo sapiens, UniProt Q9H3R0). Description: inhibition of JMJD2C H3K9me3 demethylation – biochemical, DELFIA europium, cherry-picked samples, dose response (AID 488835). It is filed as functional.
Experiment [6] deals with T2, Caspase-9 (Homo sapiens, UniProt P55211).
T2 sequence (P55211 whole entry): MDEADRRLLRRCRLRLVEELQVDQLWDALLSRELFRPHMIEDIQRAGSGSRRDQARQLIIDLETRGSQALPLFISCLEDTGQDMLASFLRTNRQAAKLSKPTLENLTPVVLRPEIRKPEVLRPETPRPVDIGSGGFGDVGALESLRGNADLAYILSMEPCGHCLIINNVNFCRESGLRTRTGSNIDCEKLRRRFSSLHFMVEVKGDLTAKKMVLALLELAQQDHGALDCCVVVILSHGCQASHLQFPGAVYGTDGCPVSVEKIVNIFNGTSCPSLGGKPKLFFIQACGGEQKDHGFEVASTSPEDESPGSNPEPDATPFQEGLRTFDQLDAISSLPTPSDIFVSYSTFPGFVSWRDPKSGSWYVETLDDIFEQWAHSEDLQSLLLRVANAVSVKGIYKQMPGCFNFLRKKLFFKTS
Description: inhibitors of purified CASP9 protease – biochemical, fluorescence, plate reader, cherry-picked samples, selectivity assay for caspase-6 inhibitor project, dose response (AID 743293).

The nature of experiment [7]: blockade of melanocortin 4 receptor signaling – cell-based, plate reader, cherry pick, counter-screen for LGR2 antagonist project, dose response (AID 743444).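 Also: transfected HEK 293 cells stimulated with alpha-MSH peptide; potency of inhibitors of the alpha-MSH evoked signal.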 It is filed as functional. (In general: The purpose of a counterscreen is to sort out artefacts and off-target activity.)
Experiment [8] addresses T3, Replicative DNA helicase DnaB (Mycobacterium tuberculosis, UniProt P9WMR3).
T3 sequence (P9WMR3 whole entry): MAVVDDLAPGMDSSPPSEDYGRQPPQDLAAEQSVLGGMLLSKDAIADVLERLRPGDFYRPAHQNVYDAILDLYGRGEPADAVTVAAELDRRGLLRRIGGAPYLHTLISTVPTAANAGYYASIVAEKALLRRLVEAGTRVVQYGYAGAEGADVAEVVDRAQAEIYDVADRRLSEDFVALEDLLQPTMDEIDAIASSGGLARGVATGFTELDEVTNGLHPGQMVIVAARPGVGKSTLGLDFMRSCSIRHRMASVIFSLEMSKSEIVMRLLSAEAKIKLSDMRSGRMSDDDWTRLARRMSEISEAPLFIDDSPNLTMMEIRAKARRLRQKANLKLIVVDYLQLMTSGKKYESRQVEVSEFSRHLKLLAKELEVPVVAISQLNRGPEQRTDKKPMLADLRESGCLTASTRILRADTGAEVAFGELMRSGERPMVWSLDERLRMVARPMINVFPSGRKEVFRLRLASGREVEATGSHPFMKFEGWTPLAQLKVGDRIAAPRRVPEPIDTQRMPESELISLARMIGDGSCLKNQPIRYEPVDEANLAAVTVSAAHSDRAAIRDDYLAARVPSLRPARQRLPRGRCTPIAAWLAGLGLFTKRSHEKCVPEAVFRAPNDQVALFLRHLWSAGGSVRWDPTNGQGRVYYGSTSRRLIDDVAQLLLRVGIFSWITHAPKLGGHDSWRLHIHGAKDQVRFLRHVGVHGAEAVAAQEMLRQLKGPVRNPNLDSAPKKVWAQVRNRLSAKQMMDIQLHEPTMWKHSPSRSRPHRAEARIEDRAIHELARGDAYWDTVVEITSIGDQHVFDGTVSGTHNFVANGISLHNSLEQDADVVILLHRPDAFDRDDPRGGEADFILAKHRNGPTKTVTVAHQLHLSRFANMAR
The experiment is described as follows: DnaB Intein secondary assay Measured in Biochemical System Using Plate Reader - 2047-04_Inhibitor_Dose_DryPowder_Activity. [Related pubchem assays (depositor defined):AID2223].

Experiment [9] has as its target Lysine-specific demethylase 4A (Homo sapiens, UniProt O75164). Description: inhibition of JMJD2A H3K9me3 demethylation – biochemical, DELFIA europium, cherry-picked samples, selectivity assay for GASC-1 inhibitor project, dose response (AID 488840).

The source made the active and inactive calls.

Sequence of Lysine-specific demethylase 4A (O75164 whole entry): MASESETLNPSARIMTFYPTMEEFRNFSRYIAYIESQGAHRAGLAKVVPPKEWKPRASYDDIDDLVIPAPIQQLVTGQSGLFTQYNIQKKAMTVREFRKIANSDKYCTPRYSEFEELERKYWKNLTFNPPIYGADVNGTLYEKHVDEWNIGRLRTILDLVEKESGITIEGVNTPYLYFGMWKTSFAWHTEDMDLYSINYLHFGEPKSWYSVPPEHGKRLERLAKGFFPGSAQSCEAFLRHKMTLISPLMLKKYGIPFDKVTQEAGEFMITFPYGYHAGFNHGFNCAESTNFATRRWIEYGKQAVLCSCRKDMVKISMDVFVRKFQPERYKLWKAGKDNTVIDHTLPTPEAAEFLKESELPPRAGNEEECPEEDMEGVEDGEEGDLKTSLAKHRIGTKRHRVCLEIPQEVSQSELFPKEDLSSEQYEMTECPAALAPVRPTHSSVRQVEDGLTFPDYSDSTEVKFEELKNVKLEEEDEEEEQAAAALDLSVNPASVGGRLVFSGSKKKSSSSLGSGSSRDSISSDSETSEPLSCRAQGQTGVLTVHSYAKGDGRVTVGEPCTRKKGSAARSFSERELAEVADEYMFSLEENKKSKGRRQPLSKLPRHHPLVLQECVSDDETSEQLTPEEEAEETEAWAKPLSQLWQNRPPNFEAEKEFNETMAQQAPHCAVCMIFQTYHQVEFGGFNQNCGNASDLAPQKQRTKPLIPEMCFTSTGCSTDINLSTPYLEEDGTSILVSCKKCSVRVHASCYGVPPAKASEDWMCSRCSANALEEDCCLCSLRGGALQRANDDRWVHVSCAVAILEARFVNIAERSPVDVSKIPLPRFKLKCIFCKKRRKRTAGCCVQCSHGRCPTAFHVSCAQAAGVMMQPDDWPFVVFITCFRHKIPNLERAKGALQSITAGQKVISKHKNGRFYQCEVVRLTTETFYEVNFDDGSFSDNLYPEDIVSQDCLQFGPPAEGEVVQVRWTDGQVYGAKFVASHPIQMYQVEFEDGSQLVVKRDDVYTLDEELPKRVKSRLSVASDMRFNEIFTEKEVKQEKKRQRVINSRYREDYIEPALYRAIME
Sequence of Sphingosine 1-phosphate receptor 2 (O95136 whole entry): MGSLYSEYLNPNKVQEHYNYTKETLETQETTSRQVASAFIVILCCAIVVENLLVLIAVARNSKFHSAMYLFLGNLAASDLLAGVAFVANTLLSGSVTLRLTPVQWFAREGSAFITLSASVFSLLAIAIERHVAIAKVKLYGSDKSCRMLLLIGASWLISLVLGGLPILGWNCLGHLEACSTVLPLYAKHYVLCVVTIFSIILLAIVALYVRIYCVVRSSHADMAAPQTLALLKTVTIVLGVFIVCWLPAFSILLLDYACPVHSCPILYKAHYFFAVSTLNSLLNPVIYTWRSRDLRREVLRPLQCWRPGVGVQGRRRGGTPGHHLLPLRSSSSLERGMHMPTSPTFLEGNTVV
Sequence of Lysine-specific demethylase 4C (Q9H3R0 whole entry): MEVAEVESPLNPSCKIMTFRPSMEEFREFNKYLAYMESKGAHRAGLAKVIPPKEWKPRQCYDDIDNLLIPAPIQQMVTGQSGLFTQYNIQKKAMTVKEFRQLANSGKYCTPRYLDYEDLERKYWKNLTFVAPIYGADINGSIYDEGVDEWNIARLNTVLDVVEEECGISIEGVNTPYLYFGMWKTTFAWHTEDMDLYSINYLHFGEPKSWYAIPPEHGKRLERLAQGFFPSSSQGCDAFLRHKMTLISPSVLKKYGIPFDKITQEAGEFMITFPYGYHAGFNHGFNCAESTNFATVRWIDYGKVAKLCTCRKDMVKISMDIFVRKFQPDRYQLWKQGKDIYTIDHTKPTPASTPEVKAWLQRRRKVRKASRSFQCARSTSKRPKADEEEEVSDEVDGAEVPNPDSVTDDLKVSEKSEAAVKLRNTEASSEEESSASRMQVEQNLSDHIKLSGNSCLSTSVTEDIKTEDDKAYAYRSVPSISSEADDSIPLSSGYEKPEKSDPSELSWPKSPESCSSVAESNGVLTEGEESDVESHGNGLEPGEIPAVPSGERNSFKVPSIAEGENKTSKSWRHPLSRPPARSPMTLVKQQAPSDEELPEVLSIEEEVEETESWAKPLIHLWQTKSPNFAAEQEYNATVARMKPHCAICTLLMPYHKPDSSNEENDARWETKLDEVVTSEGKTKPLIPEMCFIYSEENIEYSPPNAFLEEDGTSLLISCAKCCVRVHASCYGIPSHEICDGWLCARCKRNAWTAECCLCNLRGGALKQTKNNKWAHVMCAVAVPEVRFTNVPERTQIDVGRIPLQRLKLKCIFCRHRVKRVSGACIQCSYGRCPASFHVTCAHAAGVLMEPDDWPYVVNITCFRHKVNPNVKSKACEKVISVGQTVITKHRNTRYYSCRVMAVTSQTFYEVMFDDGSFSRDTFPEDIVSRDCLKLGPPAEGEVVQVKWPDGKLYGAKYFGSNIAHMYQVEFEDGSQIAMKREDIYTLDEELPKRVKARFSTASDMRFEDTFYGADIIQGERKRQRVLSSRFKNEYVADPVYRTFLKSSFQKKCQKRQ

For `CCCCCCCCCCn1c2c(c(=N)c3c1CCC3)CCC2`, the concentration at half-maximal activity (AC50) (commonly the concentration at which the activity in the assay is half-maximal) in experiment [1] was 3400 nM (active). Also, the concentration for half-maximal inhibition (IC50) (usually the midpoint of a concentration-inhibition curve) in experiment [2] is 2940 nM (active). Also, the EC50 (commonly the midpoint of the concentration-response curve) in experiment [3] was 3440 nM (inconclusive).

For the molecule `Cn1nc(-c2ccccn2)nc2c(=O)n(C)c(=O)nc1-2`, the 50% inhibitory concentration (IC50) in [4] was 79 nM (active). Besides, the concentration at half-maximal activity (AC50) in [5] was 873 nM (active); in experiment [6], 317 nM (active); in experiment [7] it was 2730 nM (active); in experiment [8] it was 503 nM (active); in [9], 5100 nM (active).
